Patent US20230293490A1, “PROFILIN1:ACTIN INHIBITOR AS AN ANTI-ANGIOGENIC COMPOUND” (University of Pittsburgh- Of the Commonwealth System of …, priority 2020, published 2023)

Key:
human dermal VEC = test: Matrigel cord assay (in vitro angiogenesis); format: cell-based; conditions: for concentration able to inhibit angiogenesis: matrigel cord assay, human dermal VEC
Procedure: (§1) Note that contrasting its effect in cells, in biochemical assay Pfn1 inhibits actin polymerization by actin sequestering, and neither compound affects actin polymerization kinetics without the presence of Pfn1 (an important screening criterion).
(§2) Cell culture, transfection and viral transduction: Murine VHL-deleted variant of RENCA (referred to as RVN cells) cells were cultured in DMEM with 10% (v/v) FBS and 1% (v/v) antibiotics. Human VHL-negative 786-0 cells (source: ATCC) were cultured in RPMI-1640 media supplemented with 10% (v/v) FBS and antibiotics. HmVEC-1, a widely used immortalized human dermal microvascular EC line (ATCC; CRL-3243—referred to as VEC), were cultured in MCDB-131 (Life Technologies; Carlsbad, CA) growth medium supplemented with 10% (v/v) FBS, 1% (v/v) antibiotics, 10 ng/mL EGF, 1 μg/mL Hydrocortisone and 10 mM L-Glutamine. For adenovirus infection, cells were plated, allowed to attach and then infected with adenovirus encoding either GFP (Ad-GFP) or Pfn1 (Ad-Pfn1) at a MOI of 500 for 24 h, before further incubation for an additional 48h in fresh culture media prior to use. For knockdown studies, cells were transfected with 50 nM of either smart-pool control or Pfn1 siRNA for 72 h.

Pfn1-actin interaction = test: Pyrene-actin polymerization assay; format: biochemical
Excerpt: as §1

RVN cells [1] = test: RVN cell proliferation assay; format: cell-based, murine; conditions: dose-dependent
Procedure: as §2, with “For knockdown studies, cells were transfected with 50 nM of either smart-pool control or Pfn1 siRNA for 72 h.” left out
(§3) Cell migration and proliferation assays: For single-cell migration experiments, RVN, VEC and 786-0 cells were plated in 24-well plates coated with type I collagen (Millipore) overnight. […] For cell proliferation assay, one thousand RCC cells were plated per well in 96-well plates using quadruplicate determinations, with proliferation assessed by time-course analyses of DAPI-stained nuclei based on images acquired over 3 to 5 random fields per well.

RVN cells [2] = test: Serum-induced chemotactic (transwell) migration of RVN cells; format: cell-based, murine; conditions: dose-dependent
Procedure: as §2, with “For knockdown studies, cells were transfected with 50 nM of either smart-pool control or Pfn1 siRNA for 72 h.” left out
as §3

RENCA cells = test: Subcutaneous RENCA tumor model, daily intratumoral injection; format: in vivo, Balb/c mice
Excerpt: To determine whether C74 has any therapeutic benefit in vivo, we performed an exploratory study in which we established subcutaneous tumors by transplantation of RENCA cells in syngeneic Balb/c mice and injected either C74 or DMSO (vehicle) directly at the tumor cell inoculation site daily over a course of 19 days starting from day 1.
In vivo tumorigenesis: In 6 to 8 week old BALB/cJ mice, 1×10^6 RENCA cells were implanted subcutaneously in a 1:1 PBS:Matrigel (R&D Systems; Minneapolis, MN) mixture, supplemented with 81 μg C74 or DMSO control. Intratumoral injections were then given daily with either 320 μg C74 or control dissolved in saline, through day 19 post-implantation. On day 20, mice were sacrificed and harvested tumors were weighed. All animal experiments were performed according to the institutionally approved animal welfare guidelines.

choroidal explant = test: Choroidal explant angiogenesis culture (ex vivo)
choroidal NV = test: Laser-induced choroidal NV (CNV) model, IVT injection; format: in vivo, mice; conditions: IVT C74 (50 μM)
Procedure: FIGS. 8A-8D. […] Laser-induced choroidal NV (CNV—an in vivo model that induces sub-retinal NV in response to laser injury in mice and is widely used to study NV aspects of wet AMD) in the settings of IVT injection of either DMSO (VEH) or C74 (50 μM) (panel C) and associated quantification (panel D).

[3] = system: human retinal endothelial cells; test: Angiogenic capability of human retinal endothelial cells in vitro; format: cell-based
[4] = system: human renal cancer cell line; test: Human renal cancer cell line proliferation; format: cell-based; conditions: dose dependent
[5] = system: human renal cancer cell line; test: Human renal cancer cell line migration; format: cell-based; conditions: dose dependent

Compound: Oc1cccc(C2c3c(-c4ccccc4)nnc(O)c3Nc3nnnn32)c1 (centres unmarked) [C2, 8-(3-hydroxyphenyl)-10-phenyl-2,4,5,6,7,11,12-heptaazatricyclo[7.4.0.0^3,^7]trideca-1(13),3,5,9,11-pentaen-13-ol, reference compound]
- concentration able to inhibit angiogenesis (human dermal VEC): 50 µM

Compound: Cc1n[nH]c(O)c1C(c1ccc(Br)cc1)c1c(C)n[nH]c1O [C74, 4-[(4-bromophenyl)(5-hydroxy-3-methyl-1H-pyrazol-4-yl)methyl]-3-methyl-1H-pyrazol-5-ol]
- reversal of Pfn1's inhibition of actin polymerization (Pfn1-actin interaction; actin plus Pfn1, fluorescence measures actin polymerization): can reverse Pfn1's inhibition of actin polymerization
- effect on actin polymerization without Pfn1 (Pfn1-actin interaction; compound alone, no Pfn1): does not significantly alter actin polymerization on its own
- fold lower concentration than C2 to inhibit angiogenesis (human dermal VEC; C74 vs C2): ~5 fold
- concentration able to inhibit angiogenesis (human dermal VEC): 10 µM
- range of concentrations reducing proliferation (RVN cells [1]): 10 to 25 µM
- range of concentrations reducing migration (RVN cells [2]): 10 to 25 µM
- average end-point tumor burden (tumor weight) (RENCA cells; daily injection at tumor site over 19 days, tumors weighed day 20, n=10 animals): 978.8 ± 366.0 mg
- tumor angiogenesis (CD31-positive immune-reactive region of tumor histosections) (RENCA cells; daily intratumoral administration, relative to DMSO): reduces tumor angiogenesis
- choroidal neovascularization ex vivo (choroidal explant): inhibited
- choroidal neovascularization in vivo (choroidal NV): inhibited
- angiogenic capability [3]: inhibited
- proliferation [4]: reduced
- migration [5]: reduced
